Data on one compound can be found in patent publication US8476248B2, “Process for the preparation of a water-soluble complex having resveratrol compounds; products comprising said complex; and uses thereof” (Uniao Brasileira de Educacao e Assistencia—Mantenedora da …, priority 2007, dated 2013).

The nature of one data set: physchem. It counts as physicochemical. Here is the method: Ten mg, 100 mg, 500 mg, 1000 mg and 2000 mg of β-CD/Res complex were put in 100 mL volumetric flasks and water was added until completing their volume. The solutions stayed at ultrasound for 60 minutes. Then samples were centrifuged and filtered in a 0.45 μm pore diameter cellulose acetate membrane. Twenty μL portions of the samples were diluted 2000 times and their absorbances were measured by a UV-VIS spectrophotometer (FIG. 2). It was noticed that system saturation happens from 1000 mg of β-CD/Res (FIG. 3). The concentration of trans-resveratrol in 1000 mg and 2000 mg β-CD/Res sample concentrations was determined by High-Performance Liquid Chromatography (HPLC). For quantification, an external calibration curve was used, with trans-resveratrol concentrations ranging from 0.10 a 200.0 mg.L^−1. HPLC was carried out in isocratic elution (flow of 1.0 mL min^−1), with an aqueous solution of 25% acetonitrile, pH 3.0, adjusted with H3PO4. The chromatograph was equipped with UV-VIS detector and a C18 column, 5 μm 250×4.6 mm. Sample portions were diluted 1000 times with eluent, and 20 μL were injected and detected in 306 nm. The concentrations of trans-resveratrol of the 1000 mg sample of β-CD/Res complex were 3010±62 mg.L^−1 and of the 2000 mg sample of βCD/Res complex were 2960.5±53 mg.L^−1. […] All analyses were carried out in quintuplicate.

For data set [1] the following is noted: background statement; cited from earlier work.

≈ marks a conversion by molar mass, not a printed value.

`Oc1ccc(C=Cc2cc(O)cc(O)c2)cc1` [trans-resveratrol, 3,5,4′-trihydroxystilbene]: the Solubility in “physchem” (60 min) is 27.5 µg/mL (≈ 120 µM). In “physchem” (water, thermodynamic from solid), this compound yielded a solubility at 60 min of 27.5 ± 0.45 µg/mL (≈ 120 µM). For the same compound, the water solubility entry in data set [1] is reported as “less than 0.03 g/L”.

By Solubility is commonly meant how much of the substance goes into solution per volume. A low value points to a poorly soluble substance. As usually defined, the solubility is how much of the substance goes into solution per volume. Lower therefore signals a poorly soluble substance.
